{"source": "patent US12583834B2", "about": "“Method of treating bacterial infections and pharmaceutical composition for treating bacterial infections” (Institut National de Recherche pour l'Agriculture, …, priority 2020, dated 2026)", "key": {"[1]": {"system": "B. cereus (Bc 407)", "assay": "Antimicrobial activity during nitric oxide stress, B. cereus", "assay_type": "cell-based, Bacillus cereus", "conditions": "4 h at 37° C. under nitric oxide stress, 10 to 200 μM, FIG. 3", "description": "(§1) The power of compound (Ia) to inhibit bacterial growth, specifically in the presence of in vitro-produced nitric oxide, is measured for different bacterial species: Bacillus cereus and two antibiotherapy challenging bacteria, regarding medical interest and therapeutic needs, namely Klebsiella pneumoniae and Acinetobacter baumannii.\n(§2) Gram-positive B. cereus (Bc 407) and Gram-negative K. pneumoniae (CIP700603) and A. baumannii (CIP7034) strains were grown to exponential phase in Luria-Bertani (LB) medium. Bacteria solution were prepared in Roswell Park Memorial Institute (RPMI) medium and 150 μL were dispatched into 96-wells plate. To measure effect of compound (Ia), bacteria were exposed to 50 μL of NO at a concentration that induces a survival below 90% compared to the condition without NO, in absence (0 μM) or presence (at a dose ranging from 10 to 200 μM) of compound (Ia).\n(§3) Bacteria survival rate was quantified after 4 h at 37° C. by normalizing bacterial load in (Ia)-treated samples against that in DMSO-treated samples (0 μM of (Ia)).\n(§4) The results obtained are shown in FIG. 3 for B. cereus, in FIG. 4 for K. pneumoniae and in FIG. 5 for A. baumanii. In these bar graphs the data represent the mean of duplicate experiment of N=3/12+/−SEM. Two-tailed t-student tests are employed to investigate statistical differences, using GraphPad Prism."}, "[2]": {"system": "K. pneumoniae (CIP700603)", "assay": "Antimicrobial activity during nitric oxide stress, K. pneumoniae", "assay_type": "cell-based, Klebsiella pneumoniae", "conditions": "4 h at 37° C. under nitric oxide stress, 10 to 200 μM, FIG. 4", "description": "as §1, §2, §3, §4"}, "[3]": {"system": "Pseudomonas aeruginosa (CIP27853)", "assay": "Survival of silkworm larvae infected with P. aeruginosa", "assay_type": "in vivo", "conditions": "Bombyx mori larvae, P. aeruginosa 1×10^4 CFU, 0.3 to 5.5 μg/g injected with the bacteria, 24 h at 27° C.; effect at higher doses; FIG. 7"}, "[4]": {"system": "Bacillus cereus (Bc 407)", "assay": "Survival of silkworm larvae infected with B. cereus", "assay_type": "in vivo", "conditions": "Bombyx mori larvae, B. cereus 1×10^2 CFU, 0.3 to 5.5 μg/g injected with the bacteria, 24 h at 27° C.; FIG. 6"}, "[5]": {"system": "B. cereus (Bc 407)", "assay": "Mouse systemic infection model, B. cereus bacterial load in organs", "assay_type": "in vivo, C57BL/6JRj mice", "conditions": "mice, B. cereus 4×10^6 CFU i.p., 12 mg/kg i.p., 6 h after infection; lung, liver and spleen; FIG. 8", "description": "The efficiency of the compound of the invention (Ia) against a bacterial pathogen was assessed in a mouse model of infection (systemic infection model). Eight weeks old female C57BL/6JRj (Janvier Labs) mice were infected with B. cereus (Bc 407) (4×10^6 CFU) by intraperitoneal injection (100 μL). 100 μl of compound of the invention (Ia) in DMSO at a dose of 12 mg/kg, or of the vehicle alone (DMSO), were further injected to the mice by intraperitoneal injection. 6 h after the infection mice were sacrificed by cervical dislocation. Mice organs were collected and homogenized in cold Phosphate Buffered Saline (PBS). Bacteria burdens in organs were determined by plating serially dilution of the homogenate on LB agar media. The results obtained are shown on FIG. 8 in a/ for the lung, in b/ for the liver and in c/ for the spleen. In these figures, the data are represented as mean+/−SEM from 3 different experiments with 6-8 mice per group. Each point represents one animal."}, "[6]": {"system": "Bombyx mori larvae", "assay": "Toxicity towards silkworm larvae", "assay_type": "in vivo", "conditions": "0.3 to 5.5 μg/g injected"}, "[7]": {"molecular_target": "Mfd from E. coli (Escherichia coli, UniProt P30958)", "sequence (P30958 whole entry)": "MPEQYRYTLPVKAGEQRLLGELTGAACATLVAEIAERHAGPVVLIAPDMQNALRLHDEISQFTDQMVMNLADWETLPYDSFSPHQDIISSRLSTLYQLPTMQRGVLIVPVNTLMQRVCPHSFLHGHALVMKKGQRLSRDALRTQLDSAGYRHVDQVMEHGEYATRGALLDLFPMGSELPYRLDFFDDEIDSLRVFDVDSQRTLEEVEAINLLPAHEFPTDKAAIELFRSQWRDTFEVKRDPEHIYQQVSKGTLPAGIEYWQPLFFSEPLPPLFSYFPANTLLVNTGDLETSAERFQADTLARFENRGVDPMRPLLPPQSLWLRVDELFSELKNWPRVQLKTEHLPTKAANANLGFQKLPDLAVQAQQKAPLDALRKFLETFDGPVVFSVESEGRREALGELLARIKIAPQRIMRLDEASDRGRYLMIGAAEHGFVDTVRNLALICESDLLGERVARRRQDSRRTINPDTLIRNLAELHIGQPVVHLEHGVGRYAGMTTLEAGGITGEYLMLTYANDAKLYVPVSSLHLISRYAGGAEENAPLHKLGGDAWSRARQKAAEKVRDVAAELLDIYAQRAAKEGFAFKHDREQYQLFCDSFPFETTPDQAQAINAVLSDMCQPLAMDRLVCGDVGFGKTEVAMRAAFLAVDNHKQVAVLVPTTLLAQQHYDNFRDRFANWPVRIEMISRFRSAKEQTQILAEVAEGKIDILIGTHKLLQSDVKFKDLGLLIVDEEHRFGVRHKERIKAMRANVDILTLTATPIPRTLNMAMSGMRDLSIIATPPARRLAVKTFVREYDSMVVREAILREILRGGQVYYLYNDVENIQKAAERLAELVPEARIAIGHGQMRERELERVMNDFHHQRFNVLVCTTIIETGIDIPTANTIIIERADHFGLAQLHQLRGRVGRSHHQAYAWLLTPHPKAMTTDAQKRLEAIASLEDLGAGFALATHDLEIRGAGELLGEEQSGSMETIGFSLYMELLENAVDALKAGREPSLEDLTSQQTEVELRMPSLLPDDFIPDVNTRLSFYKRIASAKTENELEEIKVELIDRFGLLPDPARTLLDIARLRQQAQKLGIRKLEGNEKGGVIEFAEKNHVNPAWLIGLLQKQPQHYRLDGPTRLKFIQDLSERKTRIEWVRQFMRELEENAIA", "assay": "Inhibition of Mfd ATPase activity in vitro (BIOMOL Green phosphate release)", "assay_type": "biochemical", "conditions": "for relative inhibition of E. coli Mfd ATPase activity with respect to the vehicle (DMSO): 100 μM compound, ATP 0.035 mM and 0.070 mM, FIG. 1", "description": "Mfd enzyme activity was evaluated by measuring the quantity of inorganic phosphate (PO4i) released using BIOMOL® Green reagent microtiter-plate assay (Enzo Life Sciences). Mfd from E. coli (0.35 μM) was incubated with DMSO or with the tested compounds at a concentration of 100 μM in DMSO, for 10 min at 37° C. ATPase reaction was measured in Tris pH8 0.05M; NaCl 0.3M; DTT 0.002M; MgCl2 0.0025M; DMSO 2%; containing ATP (at different concentrations between 0.0022 and 0.279 mM) for 30 min at 37° C. 50 μL of each reaction medium was transferred into clear, flat-bottom 96-well plates and the reaction was terminated by the addition of 100 μl of BIOMOL® Green reagent. The absorbance at 620 nm was measured in a microplate reader (Tecan). The absorbance values were then transformed into nmols of PO4i released based on a PO4i standard curve prepared as recommended by the supplier.\nThe potency of each compound is calculated relative to the vehicle DMSO control. Each point is the mean of duplicate experiments of N=2+/−SEM (Standard error of the Mean).\nMfd ATPase activity at ATP concentrations ranging from 0 to 0.279 mM was measured in the same conditions as described above, without and with presence of various doses of compound (Ia): 0 μM, 3 μM, 10 μM, 30 μM, 65 μM and 100 μM. Curves were fit to the Michaelis-Menten equation with the GraphPad PRISM software. Results are the mean of duplicate experiment of N=3-10+/−SEM."}, "[8]": {"system": "A. baumannii (CIP7034)", "assay": "Antimicrobial activity during nitric oxide stress, A. baumannii", "assay_type": "cell-based, Acinetobacter baumannii", "conditions": "A. baumanii, 4 h at 37° C. under nitric oxide stress, 10 to 200 μM; FIG. 5", "description": "as §1, §2, §3, §4"}}, "note": "Entries after “also recorded” stand apart in the source; their conditions may differ."}
{"smiles": "CN(C)S(=O)(=O)c1ccc(S(=O)(=O)N2CCC(n3c(=O)[nH]c4ccccc43)CC2)cc1", "note": "[compound (Ia), N,N-dimethyl-4-{[4-(2-oxo-2,3-dihydro-1H-1,3-benzodiazol-1-yl)piperidin-1-yl]sulfonyl}benzene-1-sulfonamide]", "values": [{"measurement": "bacteria survival / resistance to NO in vitro", "setting": "[1]", "result": "reduces bacteria resistance to NO in vitro"}, {"measurement": "bacteria survival / resistance to NO in vitro", "setting": "[2]", "result": "reduces bacteria resistance to NO in vitro"}, {"measurement": "survival of infected larvae (protective effect)", "setting": "[3]", "result": "significant protective effect"}, {"measurement": "survival of infected larvae (protective effect)", "setting": "[4]", "result": "significant protective effect"}, {"measurement": "bacterial load in organs", "setting": "[5]", "result": "decreases the bacterial load in all these organs"}, {"measurement": "toxicity towards the insects", "setting": "[6]", "result": "no toxicity towards the insects"}, {"measurement": "mode of inhibition of Mfd ATPase activity", "setting": "[7]; 0-100 μM (Ia), ATP 0 to 0.279 mM, Michaelis-Menten fit, FIG. 2", "result": "competitive inhibitor of Mfd ATPase activity"}, {"measurement": "relative inhibition of E. coli Mfd ATPase activity with respect to the vehicle (DMSO)", "setting": "[7]", "result": "much higher capacity of inhibition of the Mfd ATPase activity than the comparative compounds; also recorded: more efficient than compound (Ib)"}, {"measurement": "bacteria survival / resistance to NO in vitro", "setting": "[8]", "result": "reduces bacteria resistance to NO in vitro"}]}
{"smiles": "O=c1[nH]c2ccccc2n1C1CCN(c2ccc(S(=O)(=O)N3CCCCC3)cn2)CC1", "note": "[compound (Ib)]", "values": [{"measurement": "relative inhibition of E. coli Mfd ATPase activity with respect to the vehicle (DMSO)", "setting": "[7]", "result": "much higher capacity of inhibition of the Mfd ATPase activity than the comparative compounds"}]}
